Assay results published in patent US10272158B2, “Compounds for treating biofilm infection” (Board of Regents, The University of Texas System, priority 2014, dated 2019).
In brackets after ≈: the same amount, converted by molar mass. Several values for one entry are separate records, joined by “and”; a condition that tells them apart may be missing. Identical values can stand only once.

Legend:
Assay type in all cases: cell-based, Pseudomonas aeruginosa PAO1
[1] = system: P. aeruginosa planktonic phase; experiment: Minimum inhibitory concentration (MIC80) in planktonic phase, broth microdilution, optical density 595 nm; conditions: 24 h, 80% growth inhibition
Method: Pseudomonas aeruginosa (P. aeruginosa) PAO1 was used throughout the study. Blood agar and Brain heart infusion (BHI) solution were used for culturing P. aeruginosa. Prior to each experiment, P. aeruginosa was cultured on blood agar for 18 h at 37° C. A loopful of the overnight bacterial growth was inoculated into BHI medium, and incubated for 18 h in an orbital shaker (80 rpm) at 37° C. The resultant growth was harvested, washed twice in Phosphate Buffered Saline (PBS, pH 7.4) and resuspended. The concentration of P. aeruginosa was adjusted to 1×10^7 cells/mL by spectrophotometry and confirmed by hemocytometric counting. Briefly, bacterial cell suspension (5×10^5 cells/mL) were treated with the antibiotic in a concentration gradient and incubated in a 96 well microtiter plate for 24 h at 35° C. At the end of the incubation, the optical density of the bacterial growth was measured by a spectrophotometer at 595 nm. The lowest concentration of the antibiotic at which 80% of bacterial growth inhibition was achieved was considered as the MIC80 of this antibiotic against P. aeruginosa. The assay was performed quadruplicates at three times.

[2] = system: P. aeruginosa biofilm formation phase; experiment: MIC80 in biofilm formation phase, XTT reduction assay; conditions: Pseudomonas aeruginosa, 24 h, read-out: critical concentration necessary for 80% suppression of P. aeruginosa viability (MIC80)
Method: (§1) Pseudomonas aeruginosa (P. aeruginosa) PAO1 was used throughout the study. Blood agar and Brain heart infusion (BHI) solution were used for culturing P. aeruginosa.
(§2) Prior to each experiment, P. aeruginosa was cultured on blood agar for 18 h at 37° C. A loopful of the overnight bacterial growth was inoculated into BHI medium, and incubated for 18 h in an orbital shaker (80 rpm) at 37° C. The resultant growth was harvested, washed twice in Phosphate Buffered Saline (PBS, pH 7.4) and resuspended. The concentration of P. aeruginosa was adjusted to 1×10^7 cells/mL by spectrophotometry and confirmed by hemocytometric counting.
(§3) P. aeruginosa biofilm was developed as described (Bandara et al., 2010) with minor modifications. Commercially available pre-sterilized, polystyrene, flat bottom 96-well microtiter plates (BD Biosciences, California, USA) were used. […]
Bacterial cell suspension was added in sterile 96 well plates and incubated for 90 min under similar conditions as described in the section of Biofilm Formation. […] After 24 h incubation under 37° C. and 80 rpm, reduction assay of 2,3-bis(2-methoxy-4-nitro-5-sulfo-phenyl)-2H-tetrazolium-5-carboxanilide (XTT) was performed to quantify the viability of biofilm and crystal violet assay was used to measure biofilm biomass.

[3] = system: P. aeruginosa pre-formed biofilm; experiment: MIC80 in pre-formed biofilm phase, XTT reduction assay; conditions: pre-formed biofilm (24 h), 24 h treatment
Method: as §1, §2, §3
P. aeruginosa pre-formed biofilm was developed after 24 h incubation of adherent cells in sterile 96 well plates, as described in the section of Biofilm Formation. […] At the end of incubation period, XTT reduction assay was performed to quantify the viability of biofilm and crystal violet assay was used to measure biofilm biomass.

[4] = system: P. aeruginosa biofilm formation phase; experiment: Crystal violet assay of biofilm biomass, biofilm formation phase
Method: Bacterial cell suspension was added in sterile 96 well plates and incubated for 90 min under similar conditions as described in the section of Biofilm Formation. After the initial adhesion phase, adherent cells were treated with different samples in a concentration gradient, including control (PBS), tobramycin, and Tob-PEG. After 24 h incubation under 37° C. and 80 rpm, reduction assay of 2,3-bis(2-methoxy-4-nitro-5-sulfo-phenyl)-2H-tetrazolium-5-carboxanilide (XTT) was performed to quantify the viability of biofilm and crystal violet assay was used to measure biofilm biomass. At the end of incubation of both test and control biofilm, crystal violet assay was performed to quantify biofilm biomass. Biofilm was carefully washed twice with PBS and stained with 1% crystal violet solution for 15 min at 25° C. without shaking. Wells were carefully washed three times with PBS to remove excess stain and air dried in room temperature. Thirty percent acetic acid was added to the wells containing stained biofilm and incubated for 20 min at 25° C. The solution was transferred to a new well plate and optical density was measured at 570 nm.

[5] = system: P. aeruginosa pre-formed biofilm; experiment: Elimination of pre-formed biofilm in time dependent test (XTT); conditions: each at its biofilm MIC80 (Tob-PEG 27.81, tobramycin 89.80 μmol/L), 1-36 h
Method: P. aeruginosa pre-formed biofilm was developed as described previously and was treated with different samples at respective biofilm MIC80 concentrations. The plates were then incubated for 24 h at 37° C. and 80 rpm. XTT reduction assay was performed to selected samples at predetermined time points (1 h, 2 h, 3 h, 4 h, 5 h, 6 h, 9 h, 12 h, 15 h, 18 h, 21 h, 24 h and 36 h after incubation) to assess the percentage of time dependent bacterial inhibition.

Minimum inhibitory concentration (MIC80) [1]: 1.4 µM (≈ 0.655 µg/mL) | MIC80 ([1]; Pseudomonas aeruginosa): 1.4 µM (≈ 0.655 µg/mL) | MIC80 [2]: 1.4 µM (≈ 0.655 µg/mL) | critical concentration needed for 80% inhibition of viable P. aeruginosa pre-formed biofilm (MIC80) [3]: 89.80 µM and 89.8 µM
SMILES: NC[C@H]1O[C@H](O[C@H]2[C@H](O)[C@@H](O[C@H]3O[C@H](CO)[C@@H](O)[C@H](N)[C@H]3O)[C@H](N)C[C@@H]2N)[C@H](N)C[C@@H]1O [tobramycin, Tobramycin]
increment of the biofilm biomass compared to control ([4]; 1.40 μmol/L, 24 h): 17% | biomass change versus untreated control ([4]; signed change): +17% | time dependent biofilm inhibition [5]: After 18 h, tobramycin was superior
